Tested on: rabbits
Test: Effect on pupil diameter in rabbit animal model (change from baseline)
Assay type: in vivo
Settings: for reduction from baseline pupil diameter: dose of 1.25% w/w
Procedure: Dose solutions with concentration range of 0.25% to 4% pilocarpine were prepared and dosed in rabbits. The effect on pupil diameter was measured and recorded as the change from baseline.
Dose solutions with concentration range of 0.03% to 3% carbachol were prepared and dosed in rabbits. The effect on pupil diameter was measured and recorded as the change from baseline. […] The expected efficacious range of carbachol resulting in the aforementioned pupil size reduction would correspond to approximately 0.1 to 1% w/w carbachol (FIG. 2).

Compound: C[N+](C)(C)CCOC(N)=O.[Cl-] [carbachol, carbamoylcholine chloride]
- dose that most closely matches the optimum dose response measured for pilocarpine (20-30% pupil diameter reduction over 0.5 to 2 hours, about 10% up to 3 hours, tested 0.03% to 3%): approximately 0.6 % w/w

Compound: CC[C@@H]1C(=O)OC[C@@H]1Cc1cncn1C [pilocarpine]
- reduction from baseline pupil diameter (over 0.5 to 2 hours): 20-30%
- reduction from baseline pupil diameter (up to 3 hours): approximately 10%
